Patent US20230218721A1, “INCRETIN ANALOGUE, PREPARATION METHOD THEREFOR, AND USE THEREOF” (ZHEJIANG DOER BIOLOGICS CO., LTD., priority 2020, published 2023)
Read-outs that look alike come from different tables or passages of the source. Starred links: 1 amine or outer side, 2 acyl side, 3 side chain; linkers in the order of their positions; H or OH if unused. Residues, ends and D or L forms follow the SMILES beside them. Groups on a side chain read outwards from the residue. *: point of attachment. γGlu = O=C(O)[C@H](CCC(=O)[*:2])N[*:1]; Palmitoyl = CCCCCCCCCCCCCCCC(=O)*

How the values were obtained:
[1] = type: in vitro ADME, rat
Procedure: In this example, the serum stability of the incretin analogue […] was determined by the following steps: (1) The incretin analogues […] and the control (Dulaglutide) were formulated with 5 mM Tris-HCl, pH 8.5, and 0.02% TWEEN-80 solution into solutions at a concertration of 1.0 mg/ml, which were sterilized and filtered (0.22 μm, Millipore SLGP033RB), then diluted 10-fold with rat serum, mixed evenly and divided into sterile centrifuge tubes; […] (3) The GLP-1R agonist activity was detected.

[2] = cited from earlier work
GLP-1R = target: T1, GLP-1R (Homo sapiens, UniProt P43220); assay: GLP-1R agonist activity assay, luciferase reporter gene in stably transfected CHO-K1 cells; type: cell-based; details: CRE-luciferase reporter, stimulation for 6 h
T1 construct: expressed in transfected cells
T1 sequence (P43220 24-463): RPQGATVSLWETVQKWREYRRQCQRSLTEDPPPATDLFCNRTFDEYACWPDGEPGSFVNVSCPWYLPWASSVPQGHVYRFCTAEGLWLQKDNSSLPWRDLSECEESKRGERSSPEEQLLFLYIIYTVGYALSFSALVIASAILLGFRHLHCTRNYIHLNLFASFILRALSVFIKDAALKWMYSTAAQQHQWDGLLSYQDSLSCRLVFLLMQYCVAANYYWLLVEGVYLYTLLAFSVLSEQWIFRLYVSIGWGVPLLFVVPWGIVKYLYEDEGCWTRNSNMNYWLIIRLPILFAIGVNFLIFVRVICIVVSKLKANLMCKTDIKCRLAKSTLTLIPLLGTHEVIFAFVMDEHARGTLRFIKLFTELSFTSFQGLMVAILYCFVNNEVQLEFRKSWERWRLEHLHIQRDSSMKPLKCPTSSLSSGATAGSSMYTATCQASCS
Excerpt: GLP-1R agonist activity was detected using luciferase reporter gene assay (Jonathan W Day et, al.: Nat Chem Biol. 2009 October; 5 (10): 749-57). Humanized GLP-1R gene was cloned into mammalian cell expression plasmid pCDNA3.1 to construct recombinant expression plasmid pCDNA3.1-GLP-1R, and at the same time, luciferase full-length gene was cloned into pCRE plasmid to get pCRE-Luc recombinant plasmid. The pcDNA3.1-GLP-1R and pCRE-Luc plasmids were transfected into CHO-K1 cells at a molar ratio of 1:10, and the stably transfected cell strains were screened. Cells were cultured in a 9-cm cell culture dish with DMEM/F12 medium containing 10% FBS and 300 μg/ml G418. When the confluence reached about 90%, the culture supernatant was discarded. […] 2 ml DMEM/F12 medium containing 10% FBS and 300 μg/ml G418 was added for resuspension, and the number of cells was counted. […] Dulaglutide (Trade name: Trulicity®)) were diluted with DMEM/F12 medium containing 1% BSA to a series of defined concentration, 27 added into cell culture wells at 100 μl/well, and detected after stimulation for 6 h. The samples were detected according to the specification of Lucifersae reporter kit (Ray Biotech, 29 Cat: 68-LuciR-5200). […]

CCCCCCCCCCCCCCCC(=O)N[C@@H](CCC(=O)NCCCC[C@H](NC(=O)[C@H](CC(=O)O)NC(=O)[C@H](CO)NC(=O)[C@@H](NC(=O)[C@H](Cc1ccccc1)NC(=O)[C@@H](NC(=O)CNC(=O)[C@H](CCC(=O)O)NC(=O)[C@H](CO)NC(=O)[C@@H](N)Cc1ccc(O)cc1)[C@@H](C)O)[C@@H](C)O)C(=O)N[C@@H](CO)C(=O)N[C@@H](CCCCN)C(=O)N[C@@H](Cc1ccc(O)cc1)C(=O)N[C@@H](CC(C)C)C(=O)N[C@@H](CC(=O)O)C(=O)N[C@@H](CO)C(=O)N[C@@H](CCC(N)=O)C(=O)N[C@@H](C)C(=O)N[C@@H](C)C(=O)N[C@@H](CCC(N)=O)C(=O)N[C@@H](CC(=O)O)C(=O)N[C@@H](Cc1ccccc1)C(=O)N[C@H](C(=O)N[C@@H](CCC(N)=O)C(=O)N[C@@H](Cc1c[nH]c2ccccc12)C(=O)N[C@@H](CC(C)C)C(=O)N[C@@H](CC(C)C)C(=O)N[C@@H](C)C(=O)NCC(=O)NCC(=O)N1CCC[C@H]1C(=O)N[C@@H](CO)C(=O)N[C@@H](CO)C(=O)NCC(=O)N[C@@H](C)C(=O)N1CCC[C@H]1C(=O)N1CCC[C@H]1C(=O)N1CCC[C@H]1C(=O)N[C@@H](CO)C(N)=O)C(C)C)C(=O)O [P3YELAN] (H-YSEGTFTSDK([γGlu-Palmitoyl])SKYLDSQAAQDFVQWLLAGGPSSGAPPPS-NH2)
residual GLP-1R agonist activity over time in serum [1]: maintains a higher GLP-1R agonist activity in a long time

Semeglutide
average clinical weight loss ([2]; 0.5 mg treatment group): 4.2 kg
average clinical weight loss ([2]; 1.0 mg treatment group): 5.5 kg

Dulaglutide
EC50 (GLP-1R): 0.01 nM
